Legend:
[1] = solubility behaviour in ethanol/water mixtures; type: physicochemical
Source text: This effect may be used to initiate precipitation and crystallisation by the addition of water to a solution of (+)- or (−)-mefloquine hydrochloride and also to apply seeding techniques using seeds with a desired morphology such as crystalline form A in cubic or cube-like form. However, other non-solvents may be used to initiate precipitation from solution in a solvent such as hydrocarbons (hexane, heptane, cyclohexane and methylcyclohexane) or ethers (t-butyl methyl ether).

[2] = grinding of form A sample, X-ray powder diffraction; type: physicochemical; conditions: slightly ground to particle size approximately 1 to 10 μm
Method: This sample was slightly ground to reduce the particle size to approximately 1 to 10 μm and to avoid this textural effect. The strongest peak intensities are thus reduced and a few of the small peaks disappear.
Powder X-ray Diffraction (PXRD): PXRD is performed on a Philips 1710 powder X-ray diffractometer using CuKα radiation. D-spacings are calculated from the 2θ values using the wavelength of 1.54060 Å. Generally, 2θ values are within an error of ±0.1-0.2°. The experimental error on the d-spacing values is therefore dependent on the peak location.

[3] = suspensions of mixtures of forms A, B and C, 2° C. to 75° C.

With Cl.OC(c1cc(C(F)(F)F)nc2c(C(F)(F)F)cccc12)C1CCCCN1 (stereo not drawn) [(+)- or (−)-mefloquine hydrochloride] the “solubility on addition of certain amounts of water to pure ethanol” value ([1]; lower water amounts) was “increased” and the “solubility relative to pure ethanol” value ([1]; water content of above 50% (v/v)) was “lower than in pure ethanol”.

With Cl.OC(c1cc(C(F)(F)F)nc2c(C(F)(F)F)cccc12)C1CCCCN1 (stereo not shown) [form A] the “crystal form after grinding” value [2] was “still present after grinding”.

For Cl.OC(c1cc(C(F)(F)F)nc2c(C(F)(F)F)cccc12)C1CCCCN1 (stereo not shown) [form B], the “relative stability of crystalline forms” value [3] was “metastable”.

— patent publication US20070078161A1, “Crystalline forms of (+)- and (-) erythro-mefloquine hydrochloride” (priority 2003, published 2007)
